Data on 13 compounds can be found in US20130245275A1, “PHENYL DIAMIDES AND A PHARMACEUTICAL PREPARATION COMPRISING PHENYL DIAMIDES” (Rheinische Friedrich-Wilhelms Universitaet Bonn, priority 2010, published 2013).

For one assay, the system named is U87 EGFRvIII. The assay can be described thus: glioblastoma proliferation assay (MTT), U87 EGFRvIII; selectivity of the inhibition. Type of assay: cell-based, human. To be noted: for IC50: Homo sapiens, U87 EGFRvIII, 72 hours, MTT, at least 3 times, read-out: IC50 values of the inhibition of the proliferation in the cell line U87 EGFRvIII; for selectivity of the inhibition of the EGFRvIII dependent cell proliferation: U87 EGFRvIII compared with parental U87 wt. Here is the method: (§1) U87 wt and U87 EGFRvIII cells were a gift from Prof. Dr. Andreas H. Jacobs, European Institute for Molecular Imaging, Münster, Germany. The cells were maintained in DMEM (PAA) supplemented with 1% FCS (Lonza), 1% Penicillin/Streptomycin (PAA) and 110 μg/ml Sodiumpyruvat (Sigma-Aldrich) and were grown at 37° C., 5% CO2.
(§2) 300 cells per 96 well were seeded into a clear, flat bottom 96 well plate (TPP). After 24 hours the cells were washed twice in 1×DPBS (PAA) and treated with concentrations ranging from 2.5 nM to 2 μM of the phenyl diamides according to formulas (5) to (18) or 5 μM of the control compound (XH1009) in DMEM (PAA) supplemented with 1% FCS (Lonza), 1% Penicillin/Streptomycin (PAA) and 110 μg/ml Sodiumpyruvat (Sigma-Aldrich). Controls were treated with Dimethyl sulfoxide (DMSO) as solvent in an end concentration of 0.4% (v/v). Medium was changed daily.
(§3) After 72 hours cell proliferation was quantified by using a commercially available 3-(4,5-dimethylthiazol-2-yl)-2,5diphenyltetrazolium bromide (MTT) assay (Cell Titer 96® Non-Radioactive Cell Proliferation Assay, Promega) as described in the manufacture's protocol. Briefly, 15 μl of Dye solution was added directly into the 100 μl media of the cells. After 4 hours incubation at 37° C., 5% CO2, 100 μl solubilization solution was added to solubilize the formazan product and the absorbance at 570 nm was measured in a Varioscan microplate reader (Thermo Scientific). All assays were performed at least in triplicates. For calculation of the relative proliferation rate/cell number the mean absorbance in the solvent DMSO only treated cells was set as 1. Results are given as the mean+/−standard error.
(§4) Further, the IC50 values of the inhibition of the proliferation was determined. The IC50 value was determined by plotting the relative cell number against the added concentrations of the amide. The IC50 value corresponds to the concentration of the phenyl diamides at which the proliferation is reduced to half. The lower the IC50 value, the more strongly the phenyl diamide inhibits proliferation.

For assay [1], the target named is T1, sec7-domain of cytohesin-2 (ARNO) (Homo sapiens, UniProt Q99418).
T1 construct: ARNO-Sec7 (amino acids 50-255 of ARNO) were expressed in Escherichia coli; made in house; host or cells: Escherichia coli
T1 sequence (Q99418 50-255): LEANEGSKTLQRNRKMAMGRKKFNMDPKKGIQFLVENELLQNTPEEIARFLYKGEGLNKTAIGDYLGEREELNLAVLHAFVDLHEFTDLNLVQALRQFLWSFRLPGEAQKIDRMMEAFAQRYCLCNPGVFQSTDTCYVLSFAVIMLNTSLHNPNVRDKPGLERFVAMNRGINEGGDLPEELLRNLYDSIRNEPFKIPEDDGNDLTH
Kind of assay: guanine nucleotide exchange assay (GDP/GTP exchange on [Δ17]ARF1, tryptophan fluorescence). To be noted: isolated Sec-7 domain, each experiment at least 8 times, read-out: IC50 values measured for the isolated Sec-7 domain of cytohesin-2. In kind it is biochemical. Here is the method: The inhibition of the exchange activity of the sec7-domain of cytohesin-2 (ARNO) of the phenyl diamides according to formulas (5) to (18) was determined by a guanine nucleotide exchange assay.
The sec7-domain of cytohesin-2 (ARNO) and [Δ17]ARF1, a mutant of the ADP-ribosylation factor (ARF) protein, were subcloned into pET15 vectors (Novagen) as described in Hafner, M. et al. Nature 444, 941-944 (2006). N-terminal truncated [Δ17]ARF1 (amino acids 18-181), lacking the first 17 amino acids and ARNO-Sec7 (amino acids 50-255 of ARNO) were expressed in Escherichia coli and purified by Ni-NTA chromatography (Ni-NTA agarose, Qiagen).
The exchange from […] (GDP) to […] (GTP) induces a conformation change of the ribosylation factor, as a result of which the fluorescence of a tryptophan radical of the protein is increased. GDP/GTP exchange was measured on [Δ17]ARF1 by tryptophan fluorescence because a large increase in intrinsic fluorescence of ARF occurs upon exchange of GDP for GTP. All measurements were performed in PBS (137 mM NaCl, 2.7 mM KCl, 10.2 mM Na2HPO4, 1.8 mM KH2PO4) pH 7.4, 3 mM MgCl2 at 37° C.
[Δ17]ARF1 (1 μM) in PBS without MgCl2 was preincubated with 80 μM GDP in the presence of 2 mM ethylenediaminetetraacetic acid (EDTA) for 15 minutes. The bound GDP was stabilized by addition of MgCl2 at a final concentration of 3 mM and incubation for 5 minutes. For each exchange reaction 250 nM [Δ17]ARF1 was mixed with 10 nM ARNO-Sec7 (total volume 200 μl) in the absence or presence of the phenyl diamides according to formulas (5) to (18). The reaction was started by injection of 50 μM GTP.
The tryptophan fluorescence was measured at excitation and emission wavelength of 280 nm and 340 nm respectively. All fluorescent measurements were performed with a Varioskan microplate reader (Thermo Scientific), in 96-well plates. For analysis all data were fitted by linear regression.
The relative exchange rate was determined by comparing the initial linear rise of the fluorescence signal (exchange rate) in the presence of 2.5 μM of the phenyl diamides according to formulas (5) to (18) with the exchange rate in the presence of the solvent Dimethyl sulfoxide (DMSO), 0.4% end concentration, only. A further control was performed with the control compound according to formula (XH1009) as indicated below: […]
Further, the IC50 value of the inhibition of the sec7-domain of the isolated cytohesin-2 was determined. The IC50 value was determined by plotting the initial linear rise of the fluorescence signal against the added concentrations of the amide. The IC50 value corresponds to the concentration of the phenyl diamides at which the activity of the protein is reduced to half. The lower the IC50 value, the more strongly the phenyl diamide inhibits the sec7-domain.

A further assay deals with U87 wt. Kind of assay: glioblastoma proliferation assay (MTT), U87 wt. Type of assay: cell-based. To be noted: Homo sapiens, U87WT; for inhibition at 0.25 µM: 250 nM, 72 h, vs DMSO control, read-out: inhibitory effect on cell proliferation as compared to control; for IC50: 72 hours, at least 3 times, read-out: IC50 values of the inhibition of the proliferation in the cell line U87 wt. Here is the method:
(§5) The effect of the phenyl diamides according to formulas (5) to (18) on the proliferation of Glioblastoma cells was tested in two pairs of established human glioblastoma cell lines, Gli36 and U87. Human Gli36 wt, U87 wt and U87 EGFRvIII cells were a gift from Prof. Dr. Andreas H. Jacobs, European Institute for Molecular Imaging, Munster, Germany. The cells were maintained in DMEM (PAA) supplemented with 10% fetal calf serum (FCS, Lonza), 1% Penicillin/Streptomycin (PAA) and 110 μg/ml Sodiumpyruvat (Sigma-Aldrich) and were grown at 37° C., 5% CO2.
(§6) 3000 cells per 96 well were seeded into a clear, flat bottom 96 well plate (TPP). After 24 hours the cells were washed twice in 1×DPBS (PAA) and treated with 250 nM of the phenyl diamides according to formulas (5) to (18) in DMEM (PAA) supplemented with 1% FCS (Lonza), 1% Penicillin/Streptomycin (PAA) and 110 μg/ml Sodiumpyruvat (Sigma-Aldrich). Controls were treated with Dimethyl sulfoxide (DMSO) as solvent in an end concentration of 0.4% (v/v). A further control was performed with the control compound according to formula (XH1009). Medium was changed daily.
as §3
(§7) The FIGS. 2 and 3 show the relative cell numbers in the wild type glioblastoma cell line U87 wt (FIG. 2) and Gli36 wt (FIG. 3) normalized to the DSMO treated control after 72 h incubation with the respective phenyl diamides according to formulas (5) to (18), the DSMO treated control compound determined with a MTT proliferation essay. Data were normalized with the exchange in the solvent (DMSO) only control set as 1 and represent the mean values of duplicates, error bars correspond to standard error of the mean (SEM).
as §1, §2, §4

The test system of a further assay is Gli36 wt. Kind of assay: glioblastoma proliferation assay (MTT), Gli36 wt. Type of assay: cell-based. The following applies: Homo sapiens, 250 nM, 72 h, vs DMSO control, read-out: inhibitory effect on cell proliferation as compared to control. Here is the method: as §5, §6, §3, §7

Entries after “also recorded” stand apart in the source; their conditions may differ. Where only a bound is given, the exact number is not on record here.

For `CC(C)(C)c1ccc(C(=O)Nc2ccc(NC(=O)c3ccccc3[N+](=O)[O-])cc2)cc1` [formula (5), N-{4-[(4-tert-butylbenzoyl)amino]phenyl}-2-nitrobenzamide], the IC50 worked out at 46 nM with U87 EGFRvIII, 1180 nM in assay [1] and 168 nM in the assay with U87 wt. In addition, the inhibition at 0.25 µM in the assay on U87 wt and in the assay with Gli36 wt was 30 to 50% throughout.

Take `CC(C)(C)c1ccc(C(=O)Nc2ccc(NC(=O)c3cccc(Cl)c3)cc2)cc1` [formula (6), N-{4-[(4-tert-butylbenzoyl)amino]phenyl}-3-chlorobenzamide]: the results for the IC50 (in the assay with U87 EGFRvIII; in assay [1]; in the assay with U87 wt) were 67 nM, 790 nM and 243 nM, respectively. The inhibition at 0.25 µM in the assay on U87 wt and with Gli36 wt was 30 to 50% throughout.

Take `CC(C)(C)c1ccc(C(=O)Nc2ccc(NC(=O)c3ccc(Br)o3)cc2)cc1` [formula (7)]: the IC50 came to 198 nM in the assay on U87 EGFRvIII, 4570 nM in assay [1] and 1370 nM in the assay with U87 wt. For the same compound, the “selectivity of the inhibition of the EGFRvIII dependent cell proliferation” value in the assay on U87 EGFRvIII was “selectively inhibited the proliferation of the U87 EGFRvIII-containing cell line; also recorded: selectivity for the mutation EGFR variant III (EGFRvIII)”.

With `Cc1ccccc1C(=O)Nc1ccc(NC(=O)c2ccc(C(C)(C)C)cc2)cc1` [formula (8)], the IC50 with U87 EGFRvIII amounted to 148 nM; in assay [1] it was 1190 nM; in the assay with U87 wt, 118 nM. For the same compound, the inhibition at 0.25 µM with U87 wt and in the assay on Gli36 wt was > 50% throughout.

Regarding `CC(C)(C)c1ccc(C(=O)Nc2ccc(NC(=O)c3ccc(F)cc3)cc2)cc1` [formula (9)], the results for the IC50 (with U87 EGFRvIII; in assay [1]; with U87 wt) were 372 nM, 2100 nM and 89 nM, respectively. The inhibition at 0.25 µM with U87 wt and with Gli36 wt was 30 to 50% each time.

Take `CC(C)(C)c1ccc(C(=O)Nc2ccc(NC(=O)c3ccc([N+](=O)[O-])cc3)cc2)cc1` [formula (10)]: the IC50 was found to be 83 nM in the assay with U87 EGFRvIII, 440 nM in assay [1] and 28 nM in the assay on U87 wt. For the same compound, the “selectivity of the inhibition of the EGFRvIII dependent cell proliferation” value in the assay on U87 EGFRvIII is given as “selectivety for the inhibition of the parental U87 wt cell line”. Besides, the inhibition at 0.25 µM with U87 wt and in the assay on Gli36 wt was > 50% in each case.

Take `CC(C)(C)c1ccc(C(=O)Nc2ccc(NC(=O)c3ccccc3Cl)cc2)cc1` [formula (11)]: the results for the IC50 (in the assay on U87 EGFRvIII; in assay [1]; in the assay with U87 wt) were 126 nM, 2580 nM and 106 nM, respectively. The inhibition at 0.25 µM with U87 wt and in the assay on Gli36 wt was > 50% each time.

With `Cc1ccc(C(=O)Nc2ccc(NC(=O)c3ccc(C(C)(C)C)cc3)cc2)c(C)c1` [formula (12)], the IC50 in the assay on U87 EGFRvIII was determined as 84 nM; in assay [1], 1860 nM; in the assay on U87 wt, 367 nM.

Turning to `CC(C)(C)c1ccc(C(=O)Nc2ccc(NC(=O)c3ccncc3)cc2)cc1` [formula (13)], the IC50 amounted to 186 nM in the assay with U87 EGFRvIII, 7270 nM in assay [1] and 2090 nM with U87 wt. In addition, the “selectivity of the inhibition of the EGFRvIII dependent cell proliferation” value in the assay on U87 EGFRvIII is reported as “selectively inhibits the EGFRvIII expressing U87 cell line; also recorded: selectively inhibited the proliferation of the U87 EGFRvIII-containing cell line; also recorded: selectivity for the mutation EGFR variant III (EGFRvIII)”. Further, the “inhibition of proliferation of EGFRvIII-cells relative to parental cell line” value in the assay with U87 EGFRvIII (U87 EGFRvIII vs parental U87 wt, FIG. 4B) is recorded as “more than 10 fold”.

For the compound `Cc1ccc(C(=O)Nc2ccc(NC(=O)c3ccc(C(C)(C)C)cc3)cc2)cc1` [formula (14)], in assay [1], the IC50 turned out to be 1760 nM. The inhibition at 0.25 µM in the assay with U87 wt and in the assay on Gli36 wt was > 50% in each case.

For the compound `CC(C)(C)c1ccc(C(=O)Nc2ccc(NC(=O)c3ccccc3F)cc2)cc1` [formula (15)], the IC50 in assay [1] was 1770 nM.

As to `CC(C)(C)c1ccc(C(=O)Nc2ccc(NC(=O)/C=C/c3ccco3)cc2)cc1` [formula (16), 4-tert-butyl-N-[4-[[(E)-3-furan-2-ylprop-2-enoyl]amino]phenyl]-benzamide], the IC50 is 435 nM with U87 EGFRvIII, 3750 nM in assay [1] and 958 nM with U87 wt. The “selectivity of the inhibition of the EGFRvIII dependent cell proliferation” value with U87 EGFRvIII was “no selectivety”.

For `CC(C)(C)c1ccc(C(=O)Nc2ccc(NC(=O)c3ccc4c(c3)OCO4)cc2)cc1` [formula (17)], the IC50 in the assay with U87 EGFRvIII came to 224 nM; in assay [1], 2690 nM; in the assay on U87 wt, 922 nM. Further, in the assay on U87 EGFRvIII, the “selectivity of the inhibition of the EGFRvIII dependent cell proliferation” value was “selectively inhibited the proliferation of the U87 EGFRvIII-containing cell line; also recorded: selectivity for the mutation EGFR variant III (EGFRvIII)”.
